Reference: patent US6759429B2, “Pyrrole derivatives” (Sumitomo Pharmaceuticals Co., Ltd., priority 2000, dated 2004)

System: TGF-β
Assay: Effects on the extracellular matrix production by TGF-β (proteoglycan production in fibroblast)
Assay type: cell-based
Details: Rattus norvegicus, NRK-49F cells, 3 ng/ml TGF-β, 24 h, [35S]-proteoglycan radioactivity, read-out: TGF-β inhibitory rate (%)
Protocol: Effects on the Extracellular Matrix Production by TGF-β The effect of the compounds of Examples on the production of proteoglycan when TGF-β was added to fibroblast was evaluated. NRK-49F cells (rat fibroblast) were cultured in Dulbecco's Modified Eagle Medium (DMEM: manufactured by GIBCO) containing 10% bovine serum, and used in this experiment. The cells were put into a 96-well plate in an amount of 2.5×10^4 cells/100 μl/well. On the next day, the medium in the plate was exchanged to the DMEM medium containing 3 ng/ml of TGF-β (manufactured by Nacalai Tesque, Inc.), 0.5 μCi/well of [^35S]-Na2SO4, and a test compound. […] The gel after electrophoresis was dried with a gel drier, and exposed to an imaging plate, which was analyzed with […] (manufactured by Fuji Photo Film). The radioactivity of proteoglycan to be electrophoresed was measured, and the TGF-β inhibitory rate was calculated by the following equation. TGF-β Inhibitory rate (%)=(A−B)×100/(A−C) A: Radioactivity in the presence of TGF-β without a test compound B: Radioactivity in the presence of TGF-β and a test compound C: Radioactivity in the absence of TGF-β and a test compound The TGF-β inhibitory rates (%) of the test compound at concentrations of 3 μM and 10 μM are shown in Table 1.

For `COC(=O)c1cc(Cl)ccc1/C=C/Cn1cccc1C(=O)c1ccc(O)cc1` [Example 103], the inhibition at 3 µM (test compound 3 μM) was 55% and the inhibition at 10 µM (test compound 10 μM) was 90%.
